This note sets out measurements from article PMC10826971, “Evaluating protein cross-linking as a therapeutic strategy to stabilize SOD1 variants in a mouse model of familial ALS” (PLOS Biology, 2024).

“Also recorded” adds a separate entry of the source.

Data set [1] has as its target T1, EGFP-labeled SOD1 (wild-type, fALS variants, Cys111Ser, F50E/G51E) (Homo sapiens, UniProt P00441, C112S).
T1 construct: expressed in transfected cells; host or cells: NSC-34 mouse neuroblastoma/motor neuron hybrid cells
As to the kind of experiment: Immunoblotting for SOD1-EGFP cross-linking in NSC-34 cells. The class given is cell-based, mouse NSC-34 cells. Particulars: 20 μm S-XL6. The procedure: (§1) Mouse neuroblastoma/motor neuron hybrid cells (NSC-34) were cultured and maintained as previously described. Briefly, NSC-34 cells were cultured in Dulbecco’s Modified Eagle’s Medium with F12 supplement (DMEM/F12, Invitrogen Australia) containing 10% (v/v) heat-inactivated fetal bovine serum (FBS, Bovogen Biologicals, Australia) and 2 mM L-Glutamine (Invitrogen, Australia). Cells were passaged using 0.25% trypsin, 0.02% EDTA (Invitrogen, Australia). Cells were maintained within humidified incubators at 37°C with 5% CO2.
(§2) To transfect NSC-34 cells, they were first plated out to 40% confluency in either 6-well or 12-well tissue culture-treated plates and cultured for 24 h. Following this, TransIT-X2 reagent (Mirus Bio, USA) was used according to the manufacturer’s instructions to transfect NSC-34’s (1 μg DNA per well for 12-well plates, 2.5 μg per well for a 6-well plate). Cells were then incubated for 8 h prior to replating for experiments into other plates or chambers.
(§3) Transfected NSC-34 cells were plated out into 12-well plates and left overnight. […] Cells were then harvested via aspiration and pelleted (300 × g). Lysis and immunoblots were carried out as previously described. Briefly, cell pellets were lysed in ice-cold lysis buffer containing protease inhibitors (Thermo Fisher, USA) and N-ethylmaleimide (NEM) at a final concentration of 1 mg/mL. Protein concentration was measured by DC assay (BioRad, Australia) and samples were denatured in SDS-sample buffer containing 40 mM NEM at 90°C for 5 min. Lysates were loaded into 26-lane stain-free gels (BioRad, Australia) and electrophoresed. Proteins were transferred to 0.2 μm PVDF membranes for 1 h at 4°C. Membranes were blocked in 5% skim milk in TBST for 1 h prior to addition to primary antibody which as a rabbit anti-GFP antibody (ab290, 1:5,000, Abcam USA) and incubated overnight at 4°C. Membranes were washed 3× and then incubated for 1 h at room temperature in secondary antibody (goat anti-rabbit HRP conjugate at 1:5,000 (catalog no.: P0448; Dako). Membranes were then washed 3× prior to developing with SuperSignal West Pico Plus substrate (Thermo Fisher Scientific).
A general note: Immunoblotting shows a protein as a band on a membrane.

Data set [2] relates to EGFP-labeled SOD1 (wild-type, fALS variants, Cys111Ser, F50E/G51E). Described as above. The class given is cell-based, mouse NSC-34 cells. The procedure:
as §1, §2, §3

The target in data set [3] is T2, EGFP-labeled SOD1 (wild-type, fALS variants, Cys111Ser, F50E/G51E) (Homo sapiens, UniProt P00441, F51E/G52E).
T2 construct: expressed in transfected cells; host or cells: NSC-34 mouse neuroblastoma/motor neuron hybrid cells
The data set is described as above. The class given is cell-based, mouse NSC-34 cells. To be noted: 20 μm S-XL6. The procedure:
as §1, §2, §3

Data set [4] can be described thus: MTT cell viability/cytotoxicity assay. The class given is cell-based. To be noted: human, Hep G2 cells. The procedure: The Hep G2 human hepatocarcinoma cell line (American Type Culture Collection, ATCC, Manassas, Virginia, USA) was cultured using EMEM (Eagle’s minimal essential medium, ATCC) supplemented with 10% FBS (fetal bovine serum, ATCC) and 1% penicillin streptomycin as previously described (10,000 units/mL penicillin and 10,000 μg/mL streptomycin, Fisher scientific, Hampton, New Hampshire, USA). The cells were grown and subcultured around 72 h at 37°C, 5% CO2 under controlled humidity. The cells growth and morphology were inspected using an inverted Carl Zeiss microscope (Carl Zeiss Microscopy LLC, White Plains, New York, USA).
Using manufacturer’s instructions, Hep G2 cells were cultured for 24 h with a density of 2 × 10^5 cells/mL in a 96-well culture plate at 37°C, 5% CO2 under controlled humidity. […] Cell cytotoxicity was performed via the MTT (3-(4,5-dimethylthiazol-2-yl)-2,5-diphenyltetrazolium bromide) assay at 570 nm absorbance using BioTek synergy H1 (Vermont, USA) plate reader according to previously published paper. The MTT stock was made at 5 mg/mL using 0.9% sodium chloride solution which was purchased from Sigma Aldrich (St. Louis, Missouri, USA). Twenty-four hours after dosing the plate, the cultured medium was aspirated and replaced with the equal volume of MTT solution (10× dilution using EMEM complete media). The plate was incubated for 4 h (37°C, 5% CO2). The MTT solution was replaced by the equal amount of acidified isopropanol (0.3% hydrochloric acid (v/v)) and then formed formazan was dissolved by shaking the plate gently for 30 min. The absorbance was measured at 570 nm for both the samples and acidified isopropanol for background calculation. Chlorpromazine and cells with 0.1% DMSO were used as positive control and vehicle, respectively. The cell viability of each concentration was measured by normalizing against mean value of cells with 0.1% DMSO (vehicle).

Data set [5] has as its target T3, SOD1 (Homo sapiens, UniProt P00441, G94A).
T3 construct: Extraction of SOD1^G93A from red blood cell (RBC) protein was performed as previously described; tissue Jackson Laboratory 002726; host or cells: red blood cells of transgenic B6SJL-Tg(SOD1*G93A)1Gur/J mice
As to the kind of experiment: Target engagement in blood during the survival studies. Format: in vivo, mouse. The source says: Two fALS lines were used to assess survival in genetic backgrounds with different disease severity. […] Dose and dose regimen were estimated from the blood PK/PD profile and BBB penetration described above. A subcutaneous (SC) route of administration was chosen because in our hands it results in more precise delivery. […] In both studies, mice were gender and littermate matched and non ALS-related deaths were excluded. We are currently developing the methods necessary for quantifying copy number and cannot rule out reduced SOD1 expression as having contributed to the survival benefit in treated B6 G93A mice.
The data underlying this figure can be found in S1 Data. fALS, familial amyotrophic lateral sclerosis.

T3 sequence (P00441 2-154 G94A limits assumed): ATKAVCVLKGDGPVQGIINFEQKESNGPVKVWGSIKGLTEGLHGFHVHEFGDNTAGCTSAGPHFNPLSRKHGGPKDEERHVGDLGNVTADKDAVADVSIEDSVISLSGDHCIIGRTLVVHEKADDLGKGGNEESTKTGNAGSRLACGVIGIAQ
T2 sequence (P00441 2-154 F51E/G52E): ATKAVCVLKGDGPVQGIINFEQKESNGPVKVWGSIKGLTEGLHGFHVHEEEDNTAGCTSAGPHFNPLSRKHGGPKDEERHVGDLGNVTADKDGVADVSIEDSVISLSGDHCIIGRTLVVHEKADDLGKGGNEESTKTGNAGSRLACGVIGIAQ
T1 sequence (P00441 2-154 C112S): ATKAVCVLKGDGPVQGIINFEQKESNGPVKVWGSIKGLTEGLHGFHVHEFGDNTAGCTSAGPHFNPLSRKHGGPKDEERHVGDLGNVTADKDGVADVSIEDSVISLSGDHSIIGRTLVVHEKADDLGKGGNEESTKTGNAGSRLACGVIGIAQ

Regarding `[O-][S+]1CCCCS1` (stereo not drawn) [S-XL6, 1,2-dithiane-1-oxide], the “cross-linking of the Cys111Ser variant” value in data set [1] is reported as “lack of cross-linking”. Further, in data set [2], the “cross-linking yield compared to leading cyclic thiosulfinates (Comp 2–5)” value was “highest cross-linking yield; also recorded: most effective compound”; the “off-product with EGFP-wild-type and EGFP-D90A SOD1” value is given as “high-molecular weight species consistent with trimeric SOD1”. Also, the “binding to the constitutively monomeric variant (F50E/G51E)” value in data set [3] is “lack of binding”. Moreover, the viability at 24 h, 10 µM in data set [4] (10 µM, read-out: viable cells compared to vehicle control (MTT)) is 125%. For the same compound, in data set [4] (100 µM, read-out: viable cells compared to vehicle control (MTT)), the viability at 24 h, 100 µM stood at 102%. Also, the viability at 24 h, 150 µM in data set [4] (150 µM, read-out: viable cells compared to vehicle control (MTT)) is 90%. In data set [4] (250 µM, read-out: viable cells compared to vehicle control (MTT)), the viability at 24 h, 250 µM was found to be 79%. For the same compound, the viability at 24 h, 400 µM in data set [4] (400 µM, read-out: viable cells compared to vehicle control (MTT)) was determined as 72%. Also, the viability at 24 h, 600 µM in data set [4] (600 µM, read-out: viable cells compared to vehicle control (MTT)) turned out to be 15%. Besides, the viability at 24 h, 800 µM in data set [4] (800 µM, read-out: viable cells compared to vehicle control (MTT)) came out at 14%. In addition, in data set [4] (1000 µM, read-out: viable cells compared to vehicle control (MTT)), the viability at 24 h, 1000 µM was 14%. In data set [4] (MTT, read-out: Cytotoxicity LC50), the CC50 at 24 h was roughly 446 µM. Also, the “target engagement after initial dose” value in data set [5] (B6SJL G93A mice, initial SC dose of 20 mg/kg) is listed as “lower target engagement than expected”. In addition, in data set [5] (survival studies, 50 mg/kg SC), the “SOD1 engaged (on average) over time” value was “approximately 40%”.
